According to article PMC9085577, “Discovery of a Potent and Orally Active Dual GPBAR1/CysLT1R Modulator for the Treatment of Metabolic Fatty Liver Disease” (Frontiers in Pharmacology, 2022):

Tested on: liver transcriptome
Assay: AmpliSeq liver transcriptome of HFD-F mice
Type: in vivo
Excerpt: C57BL/6J male mice were fed a high fat diet (HFD) containing 59 KJ% fat plus 1% cholesterol, w/o sugar (ssniff ® EF R/M acc. D12330 mod. 22,7 ME/kg) and fructose (HFD-F) in drinking water (42 g/L), or normal chow diet for 61 days. Food intake was estimated as the difference of weight between the offered and the remnant amount of food at 3-days intervals. The food was provided as pressed pellets and the residual spillage was not considered. After 7 days, HFD-F mice were randomized to receive HFD-F alone or in combination with compound 2 (30 mg/kg/day) by gavage until the end of the experiment. Doses of each agent were chosen according to previously published data. Mice were housed under controlled temperature (22°C) and photoperiods (12:12-h light/dark cycle), allowed unrestricted access to standard mouse chow and tap water. The experimental protocol was approved by the Animal Care and Use Committee of the University of Perugia and by the Italian Minister of Health and Istituto Superiore di Sanità (Italy) and was in agreement with the European guidelines for use of experimental animals (permission n. 583/2017-PR). The general health of the animals was monitored daily by the Veterinarian in the animal facility. At the day of sacrifice, fed mice were deeply anesthetized with a mixture of tiletamine hypochloride and zolazepam hypochloride/xylazine at a dose of 50/5 mg/kg and sacrificed before 12 a.m.
High-quality RNA was extracted from mice livers, using the Direct-zol™ RNA MiniPrep w/Zymo-Spin™ IIC Columns (Zymo Research, Irvine, CA) according to the manufacturer’s instructions. RNA quality and quantity were assessed with the Qubit® RNA HS Assay Kit and a Qubit 3.0 fluorometer (Invitrogen, Carlsbad, CA) followed by agarose gel electrophoresis. Libraries were generated using the Ion AmpliSeq™ Transcriptome Mouse Gene Expression Core Panel and Chef-Ready Kit (Comprehensive evaluation of AmpliSeq transcriptome, a whole transcriptome RNA sequencing methodology) (Thermo Fisher Scientific, Waltham, MA). Briefly, 10 ng of RNA was reverse transcribed with SuperScript™ Vilo™ cDNA Synthesis Kit (Thermo Fisher Scientific, Waltham, MA) before library preparation on the Ion Chef™ instrument (Thermo Fisher Scientific, Waltham, MA). The resulting cDNA was amplified to prepare barcoded libraries using the Ion Code™ PCR Plate, and the Ion AmpliSeq™ Transcriptome Mouse Gene Expression Core Panel (Thermo Fisher Scientific, Waltham, MA), Chef-Ready Kit, according to the manufacturer’s instructions. Barcoded libraries were combined to a final concentration of 100 p.m., and used to prepare Template-Positive Ion Sphere™ (Thermo Fisher Scientific, Waltham, MA) Particles to load on Ion 540™ Chips, using the Ion 540™ Kit-Chef (Thermo Fisher Scientific, Waltham, MA). Sequencing was performed on an Ion S5™ Sequencer with Torrent Suite™ Software v6 (Thermo Fisher Scientific, Waltham, MA). The analyses were performed with a range of fold <−2 and >+2 and a p value <0.05, using Transcriptome Analysis Console Software (version 4.0.1), certified for AmpliSeq analysis (Thermo-Fisher). The transcriptomic data have been deposited as dataset on Mendeley data repository (reference number linking to the repository: Fiorucci, Stefano; Biagioli, Michele; Marchianò, Silvia; Di Giorgio, Cristina (2021), “Discovery of potent dual GPBAR1/CysLT1R modulator for the treatment of metabolic fatty liver disease,” Mendeley Data, V1, doi: 10.17632/6dnrk9fc72.1).

[1] = HFD-F mice, 30 mg/kg/day by gavage
[2] = in comparison to untreated mice

liver expression of Cyp7a1 (HFD-F mice, 30 mg/kg/day by gavage, 30 mg/kg/day): potently increased | Cyp1a2 transcript Avg (log2) (liver, HFD + compound 2): 11.93 log2 | Cyp2a5 transcript Avg (log2) (liver, HFD + compound 2): 10.52 log2 | Cyp7a1 transcript Avg (log2) (liver, HFD + compound 2): 9.39 log2
Structure (SMILES): O=C(O)c1cccc(-c2ccc(OCc3ccc4ccccc4n3)cc2)c1 [Compound 2, 4'-(quinolin-2-ylmethoxy)-[1,1′-biphenyl]-3-carboxylic acid]
liver expression of Alox5 [1]: downregulated | liver expression of Col1α1 [1]: reversed | liver expression of Elov5, Mogat1, fabp2, Cd36, Me1, and Cidea [1]: reduced significantly | liver expression of FXR and its target genes Shp and Bsep [1]: no effect | liver expression of Fasn [1]: reduced significantly | liver expression of Fgf21 [1]: decreased | liver expression of Srepb1f [1]: no effect | liver expression of αSma [1]: reversed | number of liver genes modulated compared to HFD-F alone (fold change <−2 or >2, p value < 0.05): 154 | liver expression of Pparα [2]: increased | liver expression of Pparγ [2]: increased | 1810011O10Rik transcript Avg (log2) (liver, HFD + compound 2): 5.22 log2 | 2310001K24Rik transcript Avg (log2) (liver, HFD + compound 2): 2.22 log2 | 2310039H08Rik transcript Avg (log2) (liver, HFD + compound 2): 3.92 log2 | 4833423E24Rik transcript Avg (log2) (liver, HFD + compound 2): 1.1 log2 | 6430573F11Rik transcript Avg (log2) (liver, HFD + compound 2): 1.17 log2 | AW549542 transcript Avg (log2) (liver, HFD + compound 2): 6.06 log2 | Abcb1a transcript Avg (log2) (liver, HFD + compound 2): 2.24 log2 | Acod1 transcript Avg (log2) (liver, HFD + compound 2): 0.24 log2 | Acot3 transcript Avg (log2) (liver, HFD + compound 2): 1.85 log2 | Adam8 transcript Avg (log2) (liver, HFD + compound 2): 0.63 log2 | Adam11 transcript Avg (log2) (liver, HFD + compound 2): 7.79 log2 | Anxa2 transcript Avg (log2) (liver, HFD + compound 2): 4.37 log2 | Apcs transcript Avg (log2) (liver, HFD + compound 2): 6.13 log2 | Arntl transcript Avg (log2) (liver, HFD + compound 2): 1.77 log2 | Arsg transcript Avg (log2) (liver, HFD + compound 2): 4.36 log2 | Atp1a3 transcript Avg (log2) (liver, HFD + compound 2): 0.63 log2 | Aurka transcript Avg (log2) (liver, HFD + compound 2): 0.66 log2 | Avpr1a transcript Avg (log2) (liver, HFD + compound 2): 3.76 log2 | Bcat1 transcript Avg (log2) (liver, HFD + compound 2): 0 log2 | C920009B18Rik transcript Avg (log2) (liver, HFD + compound 2): 0.43 log2 | Cabyr transcript Avg (log2) (liver, HFD + compound 2): 3.88 log2 | Capn11 transcript Avg (log2) (liver, HFD + compound 2): 2.07 log2 | Ccl2 transcript Avg (log2) (liver, HFD + compound 2): 2.2 log2 | Ccl3 transcript Avg (log2) (liver, HFD + compound 2): 1.68 log2 | Ccl4 transcript Avg (log2) (liver, HFD + compound 2): 0.13 log2 | Ccl7 transcript Avg (log2) (liver, HFD + compound 2): 0.8 log2 | Ccl9 transcript Avg (log2) (liver, HFD + compound 2): 5.17 log2 | Cd9 transcript Avg (log2) (liver, HFD + compound 2): 5.07 log2 | Cd14 transcript Avg (log2) (liver, HFD + compound 2): 2.99 log2 | Cd36 transcript Avg (log2) (liver, HFD + compound 2): 4.05 log2 | Cd63 transcript Avg (log2) (liver, HFD + compound 2): 2.97 log2 | Cdk1 transcript Avg (log2) (liver, HFD + compound 2): 1.66 log2 | Cdkl2 transcript Avg (log2) (liver, HFD + compound 2): 1.24 log2 | Cdkn1a transcript Avg (log2) (liver, HFD + compound 2): 1.4 log2 | Cdkn3 transcript Avg (log2) (liver, HFD + compound 2): 0.2 log2 | Ces2b transcript Avg (log2) (liver, HFD + compound 2): 4.12 log2 | Cetn4 transcript Avg (log2) (liver, HFD + compound 2): 1.14 log2 | Chka transcript Avg (log2) (liver, HFD + compound 2): 4.93 log2 | Chrna4 transcript Avg (log2) (liver, HFD + compound 2): 2.32 log2 | Cidea transcript Avg (log2) (liver, HFD + compound 2): 0.78 log2 | Cidec transcript Avg (log2) (liver, HFD + compound 2): 5.15 log2 | Cirbp transcript Avg (log2) (liver, HFD + compound 2): 6.69 log2 | Ckap2 transcript Avg (log2) (liver, HFD + compound 2): 0.6 log2 | Clec4e transcript Avg (log2) (liver, HFD + compound 2): 0.33 log2 | Clec4d transcript Avg (log2) (liver, HFD + compound 2): 0.27 log2 | Col27a1 transcript Avg (log2) (liver, HFD + compound 2): 6.19 log2 | Csf3 transcript Avg (log2) (liver, HFD + compound 2): 0.06 log2 | Cxcl2 transcript Avg (log2) (liver, HFD + compound 2): 1 log2 | Cyp17a1 transcript Avg (log2) (liver, HFD + compound 2): 4.11 log2 | D17H6S56E-5 transcript Avg (log2) (liver, HFD + compound 2): 1.96 log2 | Dbp transcript Avg (log2) (liver, HFD + compound 2): 7.05 log2 | Defb1 transcript Avg (log2) (liver, HFD + compound 2): 1.19 log2 | Derl2 transcript Avg (log2) (liver, HFD + compound 2): 4.75 log2 | Dhrs9 transcript Avg (log2) (liver, HFD + compound 2): 1.65 log2 | Dtx4 transcript Avg (log2) (liver, HFD + compound 2): 2.62 log2 | Dusp8 transcript Avg (log2) (liver, HFD + compound 2): 1.5 log2 | Egr1 transcript Avg (log2) (liver, HFD + compound 2): 3.52 log2 | Ell transcript Avg (log2) (liver, HFD + compound 2): 5.75 log2 | Elovl3 transcript Avg (log2) (liver, HFD + compound 2): 8.94 log2 | Elovl5 transcript Avg (log2) (liver, HFD + compound 2): 9.72 log2 | Ephb2 transcript Avg (log2) (liver, HFD + compound 2): 0.78 log2 | Epm2aip1 transcript Avg (log2) (liver, HFD + compound 2): 2.63 log2 | Fam57a transcript Avg (log2) (liver, HFD + compound 2): 2.02 log2 | Fgf21 transcript Avg (log2) (liver, HFD + compound 2): 2.1 log2 | Fxyd2 transcript Avg (log2) (liver, HFD + compound 2): 0.72 log2
